According to US20050181029A1, “Distributed drug dispensing matrix as a transdermal patch” (priority 2004, published 2005):

What was measured:
Format in all cases: in vitro ADME, pig
[1] = Polycarbonate/teflon array assembly, mannitol delivery across skin vs Franz diffusion cell; settings: reservoir size approaching 2.5 mm vs single 8 mm (16 mm diameter Franz cell) reservoir; 10 μCi/mL 3H-mannitol in 0.5% SLS in PBS; 24 hours
Description: The present invention is a novel transdermal drug delivery patch with an array of spatially organized reservoirs. In order to verify the validity of our invention we used three different assemblies, simulating the proposed matrix patch, that in essence provide the same working principle. All experiments were performed using pig skin. Skin was harvested from pigs (15) and was stored at −70° C. until the time of experiments. Skin was thawed at room temperature just before using it for experiments. A brief discussion of the experimental system used for the three cases follows. I. Polycarbonate/Teflon Array Assembly: This assembly consists of two plates made of polycarbonate/teflon—a donor plate and a receiver plate. The top plate (donor plate) has through holes (wells) drilled in it, each of which acts as an isolated donor chamber. The bottom plate (receiver plate) also has holes (wells) drilled in the same pattern as the donor plate and simulates the receiver compartment. The skin is placed between the donor and receiver plate and the plate assembly is clamped using four screws. […] At the end of 24 hours samples were drawn from the receiver plate and analyzed in a liquid scintillation counter (Packard Tri-Carb 2100TR, Packard Instrument Company, Meriden, Conn.). […] The data was then analyzed to verify any effect of a distributed dispensing system on the amount of drug delivered across the skin. […]

[2] = Polymer (polyurethane) array assembly, mannitol skin permeability; settings: polyurethane arrays, reservoirs 6 to 2 mm, relative to 6 mm reservoir; 0.5% SLS in PBS; 24 hrs; no clamping
Description: Polymer (Polyurethane) Array Assembly: Skin was placed in a PBS receiver fluid (10 ml) such that PBS contacted the skin on all sides and the bottom but not the top (FIG. 5). An array of liquid reservoirs was created by punching circular holes in a matrix pattern in a polyurethane slab (thickness=5 mm). These holes were separated from each other by one diameter. Such arrays were made for different size reservoirs (diameters in the range of 2-6 mm). The top surface of the skin was dried of any surface moisture. […]
Transdermal transport experiments were performed using mannitol as a model solute and sodium lauryl sulfate (SLS) as a model enhancer. […] Skin permeability in the skin exposed to reservoirs was calculated for each reservoir size by dividing the total amount delivered by the number of reservoirs, area of each reservoir, contact time, and mannitol concentration in each reservoir. Enhancement factors corresponding to various reservoir sizes were then calculated with reference to the permeability obtained from the largest reservoir (6 mm).
The enhancements are calculated with respect to the permeability obtained from a 6 mm reservoir.

[3] = Agar gel disc assembly on Franz diffusion cell, mannitol skin permeability; settings: agar gel disks 16, 9, 5 and 3 mm, relative to 16 mm disk; 0.5% SLS in PBS; 24 hrs
Description: All experiments were performed using pig skin. Skin was harvested from pigs (15) and was stored at −70° C. until the time of experiments. Skin was thawed at room temperature just before using it for experiments. […] Agar Gel Disc Assembly: A third experimental system was used to assess the dependence of permeability on contact area. In this system, permeation of mannitol from gel disks was studied. For this purpose, agar gel disks were prepared by dissolving 0.5 gm agar (Becton Dickinson Microbiology Systems, Sparks, Md.) in 20 ml of 0.5% solution (w/v) SLS in PBS. 10 μCi/ml ^3H radiolabeled mannitol was added to the mixture. The mixture was heated until agar formed a viscous solution. The viscous mixture was allowed to settle into a gel by pouring it into a petri dish to form a circular disc of 3.5 mm thickness. Disks of various diameters (16, 9, 5, and 3 mm) were then cut using a punch. […] Receiver compartments were sampled over 24 hrs and concentration of radiolabeled mannitol in these samples was measured using a scintillation counter. Permeability was calculated for each reservoir size by dividing the total flux obtained by the number of reservoirs at that particular size. Enhancement factors were calculated by dividing the permeability obtained from a disk of a particular size with reference to permeability obtained from the largest disk (16 mm).

[4] = Patches holding agar gel disc reservoir arrays at constant area fraction, mannitol delivery; settings: 3 mm reservoir array (28 reservoirs) vs one 16 mm reservoir; area fraction ~20%; skin area 10.25 cm^2; identical formulation
Description: All enhancements are obtained by normalizing the amount delivered into the skin at any particular reservoir size to that delivered at 16 mm. Error bars correspond to one standard deviation (n=5).
To experimentally determine the enhancement obtained by reservoir arrays, we created patches holding reservoir arrays containing ^3H labeled mannitol as the model solute. These patches were created at varying reservoir sizes (16 mm, 9 mm, 5 mm and 3 mm). In these patches, the reservoirs were arranged in a square pattern with the center-to-center distance between two adjacent reservoirs set to twice the reservoir diameter. […] Keeping the area fraction the same for all the reservoir sizes (˜20%) drug reservoirs were placed on these skin pieces.

Which results are given for OC[C@@H](O)[C@@H](O)[C@H](O)[C@H](O)CO [mannitol]?
amount of mannitol delivered across the skin per unit area, normalized to single continuous reservoir [1]: exceeding 10 fold; mannitol permeability enhancement as a function of reciprocal of reservoir size [2]: permeability enhancement increases with inverse reservoir size; mannitol permeability enhancement for varying reservoir sizes [3]: significant increase in permeability is observed with a decrease in disk diameter; amount of mannitol delivered per unit macroscopic area, array vs single large reservoir [4]: about 11 times
